Literature values, collected in paper PMC9851200, “Multiparameter phenotypic screening for endogenous TFEB and TFE3 translocation identifies novel chemical series modulating lysosome function” (Autophagy, 2022).

Experiments:
Design in all cases: method as in original PKIS2 published data
[1] = target: kinases (KINOMEscan panel) (Homo sapiens, UniProt Q9Y6R4); details: MAP3K4; Published KINOMEscan; ref original PKIS2 published data; cited from earlier work
[2] = target: kinases (KINOMEscan panel) (Homo sapiens, UniProt Q00536); details: kinase CDK16; Published KINOMEscan; ref original PKIS2 published data; cited from earlier work
[3] = target: T1, kinases (KINOMEscan panel) (Homo sapiens, UniProt Q13470); details: TNK1; Published KINOMEscan; ref original PKIS2 published data; cited from earlier work
T1 sequence (Q13470 1-666): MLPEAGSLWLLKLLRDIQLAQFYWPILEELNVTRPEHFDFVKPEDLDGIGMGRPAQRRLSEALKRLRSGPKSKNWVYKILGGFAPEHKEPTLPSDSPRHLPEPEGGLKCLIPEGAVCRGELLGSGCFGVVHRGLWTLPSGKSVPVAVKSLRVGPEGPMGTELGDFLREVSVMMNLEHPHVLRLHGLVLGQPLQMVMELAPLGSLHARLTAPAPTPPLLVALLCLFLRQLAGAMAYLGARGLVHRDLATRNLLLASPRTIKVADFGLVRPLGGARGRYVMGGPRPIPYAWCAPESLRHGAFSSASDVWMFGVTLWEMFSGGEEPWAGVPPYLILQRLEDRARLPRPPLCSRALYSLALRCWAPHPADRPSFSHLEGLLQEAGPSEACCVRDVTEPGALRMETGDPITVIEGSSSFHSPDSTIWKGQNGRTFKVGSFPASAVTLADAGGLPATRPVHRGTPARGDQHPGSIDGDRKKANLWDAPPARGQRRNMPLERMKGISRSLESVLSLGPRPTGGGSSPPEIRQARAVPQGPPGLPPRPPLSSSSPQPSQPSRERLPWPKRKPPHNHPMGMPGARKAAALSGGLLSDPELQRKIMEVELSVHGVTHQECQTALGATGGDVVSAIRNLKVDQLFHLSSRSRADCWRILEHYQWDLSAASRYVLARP

[4] = target: kinases (KINOMEscan panel) (Homo sapiens, UniProt Q9HCP0); details: kinase CSNK1G1; Published KINOMEscan; ref original PKIS2 published data; cited from earlier work
[5] = target: kinases (KINOMEscan panel) (Homo sapiens, UniProt Q8TDR2); details: STK35; Published KINOMEscan; ref original PKIS2 published data; cited from earlier work
[6] = target: T2, kinases (KINOMEscan panel) (Homo sapiens, UniProt P29322); details: kinase EPHA8; Published KINOMEscan; ref original PKIS2 published data; cited from earlier work
T2 sequence (P29322 28-1005): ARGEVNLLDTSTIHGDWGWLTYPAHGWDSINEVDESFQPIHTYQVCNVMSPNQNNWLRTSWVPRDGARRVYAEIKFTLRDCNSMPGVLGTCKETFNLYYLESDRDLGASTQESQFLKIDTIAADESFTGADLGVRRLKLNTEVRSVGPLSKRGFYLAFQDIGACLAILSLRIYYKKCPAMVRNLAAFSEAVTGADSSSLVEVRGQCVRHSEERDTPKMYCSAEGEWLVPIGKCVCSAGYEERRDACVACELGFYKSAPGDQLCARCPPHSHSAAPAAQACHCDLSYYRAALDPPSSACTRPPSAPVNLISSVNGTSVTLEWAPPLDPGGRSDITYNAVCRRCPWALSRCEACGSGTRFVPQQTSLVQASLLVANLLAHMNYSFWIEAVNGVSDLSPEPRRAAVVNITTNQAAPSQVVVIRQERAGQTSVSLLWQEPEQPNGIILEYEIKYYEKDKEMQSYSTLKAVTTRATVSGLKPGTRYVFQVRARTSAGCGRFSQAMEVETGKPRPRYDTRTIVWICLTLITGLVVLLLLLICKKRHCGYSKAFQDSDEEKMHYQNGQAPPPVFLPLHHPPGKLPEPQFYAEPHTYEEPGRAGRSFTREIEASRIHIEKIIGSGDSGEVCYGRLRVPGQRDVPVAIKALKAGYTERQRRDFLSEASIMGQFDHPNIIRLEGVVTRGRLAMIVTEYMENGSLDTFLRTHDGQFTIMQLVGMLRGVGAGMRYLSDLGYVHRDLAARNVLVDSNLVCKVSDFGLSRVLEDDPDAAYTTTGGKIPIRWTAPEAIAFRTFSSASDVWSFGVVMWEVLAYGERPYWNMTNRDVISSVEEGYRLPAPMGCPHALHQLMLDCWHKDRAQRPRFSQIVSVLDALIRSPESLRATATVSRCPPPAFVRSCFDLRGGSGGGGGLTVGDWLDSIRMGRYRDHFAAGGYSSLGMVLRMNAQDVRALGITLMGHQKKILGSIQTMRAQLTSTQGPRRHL

[7] = target: T3, kinases (KINOMEscan panel) (Homo sapiens, UniProt O15075); details: Published KINOMEscan; ref original PKIS2 published data; cited from earlier work
T3 sequence (O15075 1-740): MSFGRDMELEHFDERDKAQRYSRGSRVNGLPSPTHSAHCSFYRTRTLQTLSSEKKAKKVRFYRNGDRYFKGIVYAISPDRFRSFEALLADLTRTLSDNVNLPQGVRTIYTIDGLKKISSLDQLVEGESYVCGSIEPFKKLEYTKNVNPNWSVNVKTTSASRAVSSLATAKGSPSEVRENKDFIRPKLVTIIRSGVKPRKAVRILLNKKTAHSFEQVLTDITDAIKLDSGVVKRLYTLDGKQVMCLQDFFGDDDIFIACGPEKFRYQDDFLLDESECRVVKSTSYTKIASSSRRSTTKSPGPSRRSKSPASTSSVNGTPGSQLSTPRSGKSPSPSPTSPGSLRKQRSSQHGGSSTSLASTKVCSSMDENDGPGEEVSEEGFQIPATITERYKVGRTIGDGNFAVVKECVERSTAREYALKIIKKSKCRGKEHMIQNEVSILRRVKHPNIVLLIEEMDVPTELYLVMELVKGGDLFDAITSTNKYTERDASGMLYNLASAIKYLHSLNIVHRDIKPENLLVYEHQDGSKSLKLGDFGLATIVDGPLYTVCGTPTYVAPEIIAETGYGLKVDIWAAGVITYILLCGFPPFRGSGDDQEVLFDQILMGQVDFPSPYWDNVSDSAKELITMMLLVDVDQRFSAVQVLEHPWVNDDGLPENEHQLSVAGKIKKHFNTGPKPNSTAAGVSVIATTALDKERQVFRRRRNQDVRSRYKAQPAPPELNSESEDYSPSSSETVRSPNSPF

Sequence of kinases (KINOMEscan panel) (Homo sapiens, UniProt Q9Y6R4) (Q9Y6R4 whole entry): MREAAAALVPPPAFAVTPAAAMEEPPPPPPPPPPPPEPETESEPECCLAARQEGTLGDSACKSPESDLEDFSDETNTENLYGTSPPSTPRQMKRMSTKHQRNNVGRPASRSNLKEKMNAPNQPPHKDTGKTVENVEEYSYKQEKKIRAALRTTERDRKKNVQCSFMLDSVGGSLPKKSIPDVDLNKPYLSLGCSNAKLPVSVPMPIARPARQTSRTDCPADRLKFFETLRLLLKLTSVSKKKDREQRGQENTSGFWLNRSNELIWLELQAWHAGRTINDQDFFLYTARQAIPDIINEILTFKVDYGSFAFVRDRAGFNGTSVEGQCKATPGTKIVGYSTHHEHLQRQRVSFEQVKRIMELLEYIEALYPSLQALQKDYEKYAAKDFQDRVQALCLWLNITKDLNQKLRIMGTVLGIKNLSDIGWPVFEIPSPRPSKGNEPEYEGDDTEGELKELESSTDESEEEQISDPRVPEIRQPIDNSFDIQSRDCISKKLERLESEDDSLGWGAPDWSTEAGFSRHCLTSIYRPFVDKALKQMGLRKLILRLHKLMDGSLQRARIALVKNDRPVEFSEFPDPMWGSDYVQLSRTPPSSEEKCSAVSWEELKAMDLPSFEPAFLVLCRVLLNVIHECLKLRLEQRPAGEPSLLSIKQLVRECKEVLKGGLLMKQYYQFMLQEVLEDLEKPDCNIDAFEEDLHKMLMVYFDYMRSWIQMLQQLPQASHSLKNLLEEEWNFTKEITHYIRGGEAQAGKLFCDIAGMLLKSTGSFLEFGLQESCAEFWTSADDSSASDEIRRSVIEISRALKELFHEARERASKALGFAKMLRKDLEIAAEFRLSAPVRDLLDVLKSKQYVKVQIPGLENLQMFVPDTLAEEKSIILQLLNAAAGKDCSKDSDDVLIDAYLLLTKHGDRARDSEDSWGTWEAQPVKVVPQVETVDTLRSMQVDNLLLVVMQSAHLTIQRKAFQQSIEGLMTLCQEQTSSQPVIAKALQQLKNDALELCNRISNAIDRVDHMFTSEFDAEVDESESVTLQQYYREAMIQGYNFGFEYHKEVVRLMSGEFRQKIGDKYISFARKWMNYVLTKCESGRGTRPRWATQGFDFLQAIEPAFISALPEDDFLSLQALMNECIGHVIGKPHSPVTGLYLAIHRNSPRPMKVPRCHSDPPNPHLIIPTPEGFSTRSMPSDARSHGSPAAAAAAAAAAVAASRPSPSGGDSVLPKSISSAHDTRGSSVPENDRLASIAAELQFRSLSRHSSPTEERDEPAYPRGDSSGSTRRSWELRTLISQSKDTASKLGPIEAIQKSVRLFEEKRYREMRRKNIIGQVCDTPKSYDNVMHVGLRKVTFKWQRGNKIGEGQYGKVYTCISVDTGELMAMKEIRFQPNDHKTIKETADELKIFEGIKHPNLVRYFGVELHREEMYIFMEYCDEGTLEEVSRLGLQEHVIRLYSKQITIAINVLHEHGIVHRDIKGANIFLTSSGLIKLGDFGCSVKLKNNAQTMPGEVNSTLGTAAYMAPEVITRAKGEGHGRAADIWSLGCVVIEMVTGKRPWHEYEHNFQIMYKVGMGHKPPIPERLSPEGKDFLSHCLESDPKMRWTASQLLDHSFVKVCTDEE
Sequence of kinases (KINOMEscan panel) (Homo sapiens, UniProt Q8TDR2) (Q8TDR2 whole entry): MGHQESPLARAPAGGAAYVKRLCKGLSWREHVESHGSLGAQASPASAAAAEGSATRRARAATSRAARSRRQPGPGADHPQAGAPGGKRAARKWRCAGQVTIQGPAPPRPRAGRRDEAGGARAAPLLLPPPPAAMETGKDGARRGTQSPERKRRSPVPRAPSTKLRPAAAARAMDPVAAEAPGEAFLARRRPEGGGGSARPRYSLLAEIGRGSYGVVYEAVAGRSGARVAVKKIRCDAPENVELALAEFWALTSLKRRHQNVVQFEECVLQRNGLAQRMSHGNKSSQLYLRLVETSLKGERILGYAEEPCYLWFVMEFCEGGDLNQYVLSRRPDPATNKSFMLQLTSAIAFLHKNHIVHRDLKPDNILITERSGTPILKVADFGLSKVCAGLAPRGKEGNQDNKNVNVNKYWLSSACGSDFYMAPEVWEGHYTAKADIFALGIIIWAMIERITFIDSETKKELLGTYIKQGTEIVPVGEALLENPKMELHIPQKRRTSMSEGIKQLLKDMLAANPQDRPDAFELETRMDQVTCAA
Sequence of kinases (KINOMEscan panel) (Homo sapiens, UniProt Q9HCP0) (Q9HCP0 whole entry): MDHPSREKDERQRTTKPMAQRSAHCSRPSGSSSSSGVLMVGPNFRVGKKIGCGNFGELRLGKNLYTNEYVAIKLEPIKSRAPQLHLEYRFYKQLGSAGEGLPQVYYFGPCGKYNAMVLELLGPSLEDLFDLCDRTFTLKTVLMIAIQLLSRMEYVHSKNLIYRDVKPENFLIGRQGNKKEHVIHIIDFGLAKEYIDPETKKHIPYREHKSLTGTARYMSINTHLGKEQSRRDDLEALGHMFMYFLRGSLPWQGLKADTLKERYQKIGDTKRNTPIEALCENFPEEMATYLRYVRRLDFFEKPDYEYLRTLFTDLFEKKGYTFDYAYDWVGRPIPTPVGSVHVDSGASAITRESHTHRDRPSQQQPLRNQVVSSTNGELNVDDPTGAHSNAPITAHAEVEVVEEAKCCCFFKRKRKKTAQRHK
Sequence of kinases (KINOMEscan panel) (Homo sapiens, UniProt Q00536) (Q00536 whole entry): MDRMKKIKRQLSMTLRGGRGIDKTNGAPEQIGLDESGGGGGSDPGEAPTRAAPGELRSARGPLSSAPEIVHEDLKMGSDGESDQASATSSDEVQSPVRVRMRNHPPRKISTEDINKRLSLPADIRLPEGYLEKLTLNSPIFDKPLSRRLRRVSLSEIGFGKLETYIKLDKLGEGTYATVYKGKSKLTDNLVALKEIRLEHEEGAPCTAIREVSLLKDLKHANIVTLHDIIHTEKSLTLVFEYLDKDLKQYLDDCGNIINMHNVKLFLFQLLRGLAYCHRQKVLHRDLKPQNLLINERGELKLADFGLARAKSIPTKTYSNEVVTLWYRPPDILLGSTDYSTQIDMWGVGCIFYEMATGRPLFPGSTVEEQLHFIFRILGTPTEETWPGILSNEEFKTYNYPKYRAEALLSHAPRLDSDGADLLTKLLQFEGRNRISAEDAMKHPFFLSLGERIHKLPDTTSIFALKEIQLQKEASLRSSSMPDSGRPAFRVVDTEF

Cc1cccc(-c2nc(Nc3ccncc3)c3ccccc3n2)n1 [NK215]
KINOMEscan MAP3K4 [1]: 16
KINOMEscan CDK16 [2]: 0
KINOMEscan TNK1 [3]: 39
KINOMEscan CSNK1G1 [4]: 0
KINOMEscan STK35 [5]: 0
KINOMEscan EPHA8 [6]: 7
KINOMEscan DCLK1 [7]: 14
